In patent US4882419A, “Process for preparing antibiotic L 17392 (deglucoteicoplanin)” (Gruppo Lepetit S.p.A., priority 1984, dated 1989):
Values after ≈ are worked out from the molar mass of the structure shown.

Tests used:
[1] = Solubility (physico-chemical characteristics); type: physicochemical
[2] = Potentiometric titration profile (pH1/2 values); type: physicochemical; conditions: methylcellosolve:water 4:1, titration with 0.01N NaOH
[3] = system: Staplylococcus aureus Tour; test: In vitro antibacterial activity, two-fold dilution MIC in microtiter system; type: cell-based, Staphylococcus aureus
Protocol: The in vitro antibacterial activity of L 17392 was determined using the two-fold dilution method in microtiter system. Todd-Hewitt broth (Difco) was used for streptococci and Isosensitest broth (Oxoid) for staphylococci and gram-negative bacteria. Overnight broth cultures were diluted so that the final inoculum was about 10^4 colony-forming units per ml (cfu/ml). […] The obtained results are reported in Table I below: | ^(a) Inoculum: 10^6 cfu/ml | ^(b) Determined in the presence of 30% bovine serum

[4] = system: staphylocci (S. aureus, S. epidermidis); test: Antibacterial activity against staphylococci, in words; type: cell-based
Protocol: (§1) The in vitro antibacterial activity of L 17392 was determined using the two-fold dilution method in microtiter system. Todd-Hewitt broth (Difco) was used for streptococci and Isosensitest broth (Oxoid) for staphylococci and gram-negative bacteria. Overnight broth cultures were diluted so that the final inoculum was about 10^4 colony-forming units per ml (cfu/ml).

[5] = system: Staphylococcus aureus ATCC 6538; test: In vitro antibacterial activity, two-fold dilution MIC in microtiter system; type: cell-based; conditions: Isosensitest broth, inoculum about 10^4 cfu/ml, 18-24 h at 37° C.
Protocol: as §1

[6] = system: Pseudomonas aeruginosa ATCC 10145; test: as above; type: cell-based; conditions: Isosensitest broth, inoculum about 10^4 cfu/ml, 18-24 h at 37° C.
Protocol: as §1

[7] = system: Streptococcus pyogenes C 203; test: as above; type: cell-based; conditions: Todd-Hewitt broth, inoculum about 10^4 cfu/ml, 18-24 h at 37° C.
Protocol: as §1

[8] = system: Escherichia coli SKF 12140; test: as above; type: cell-based; conditions: Isosensitest broth, inoculum about 10^4 cfu/ml, 18-24 h at 37° C.
Protocol: as §1

[9] = system: Proteus vulgaris × 19 H ATCC 881; test: as above; type: cell-based; conditions: Isosensitest broth, inoculum about 10^4 cfu/ml, 18-24 h at 37° C.
Protocol: as §1

[10] = system: Streptococcus pneumoniae UC 41; test: as above; type: cell-based; conditions: Todd-Hewitt broth, inoculum about 10^4 cfu/ml, 18-24 h at 37° C.
Protocol: as §1

[11] = system: Streptococcus faecalis ATCC 7080; test: as above; type: cell-based; conditions: Todd-Hewitt broth, inoculum about 10^4 cfu/ml, 18-24 h at 37° C.
Protocol: as §1

[12] = system: Staphylococcus epieermidis ATCC 12228; test: as above; type: cell-based, Staphylococcus epidermidis; conditions: Isosensitest broth, inoculum about 10^4 cfu/ml, 18-24 h at 37° C.
Protocol: as §1

[13] = system: S. aureus L 1096; test: MIC against clinical isolate methicillin-resistant staphylococci; type: cell-based
Protocol: as §1

[14] = system: S. epidermidis L 835; test: as above; type: cell-based
Protocol: as §1

[15] = system: S. aureus L 1524; test: as above; type: cell-based
Protocol: as §1

[16] = system: S. aureus L 1526; test: as above; type: cell-based
Protocol: as §1

[17] = system: S. epidermidis L 1372; test: as above; type: cell-based
Protocol: as §1

[18] = system: S. epidermidis L 1142; test: as above; type: cell-based
Protocol: as §1

[19] = system: S. epidermidis L 1378; test: as above; type: cell-based
Protocol: as §1

[20] = system: S. aureus L 1097; test: as above; type: cell-based
Protocol: as §1

[21] = system: S. epidermidis L 785; test: as above; type: cell-based
Protocol: as §1

[22] = system: clinical isolate methicillin-resistant staphylococci (S. aureus, S. epidermidis); test: Antibacterial activity against methicillin-resistant staphylococci, in words; type: cell-based; conditions: various clinical isolates
Protocol: as §1

[23] = pKa of a sample dissolved in methylcellosolve/water 4:1; type: physicochemical

In the case of `CC(=O)N[C@@H]1[C@@H](O[C@H]2c3ccc(c(Cl)c3)Oc3cc4cc(c3O)Oc3ccc(cc3Cl)C[C@@H]3NC(=O)[C@@H](N)c5ccc(O)c(c5)Oc5cc(O)cc(c5)[C@@H](NC3=O)C(=O)N[C@@H]4C(=O)N[C@@H]3C(=O)N[C@H]2C(=O)N[C@@H](C(=O)O)c2cc(O)cc(O)c2-c2cc3ccc2O)O[C@@H](CO)[C@H](O)[C@H]1O` (stereo in doubt) [antibiotic L 17046], the solubility ([1]; dimethylformamide, dimethylsulfoxide, propyleneglycol and methylcellosolve) is reported as “freely soluble”, the solubility ([1]; methanol) is reported as “slightly soluble” and the solubility ([1]; n-hexane, ethyl ether and acetone) is reported as “almost insoluble”. The solubility ([1]; water at pH>8.0) was “freely soluble”, the “pH1/2 value, third titration slope” value ([2]; five equivalents) was 11 and the “pH1/2 value, first titration slope” value ([2]; one equivalent) was 5.0. For the same compound, the “pH1/2 value, second titration slope” value ([2]; one equivalent) was 7.0.
With `N[C@H]1C(=O)N[C@@H]2Cc3ccc(c(Cl)c3)Oc3cc4cc(c3O)Oc3ccc(cc3Cl)[C@@H](O)[C@@H]3NC(=O)[C@H](NC(=O)[C@@H]4NC(=O)[C@@H](NC2=O)c2cc(O)cc(c2)Oc2cc1ccc2O)c1ccc(O)c(c1)-c1c(O)cc(O)cc1[C@@H](C(=O)O)NC3=O` [antibiotic L 17392, deglucoteicoplanin] the solubility ([1]; aqueous methanol, ethanol and acetone) was “soluble”, the solubility ([1]; ethyl alcohol and dimethylformamide) was “slightly soluble” and the solubility ([1]; water at a pH higher than 9) was “soluble”. It also gave an MIC ([3]; Determined in the presence of 30% bovine serum) of 0.2 µg/mL, an MIC ([3]; Inoculum: 10^6 cfu/ml) of 0.2 µg/mL (≈ 0.167 µM) and an MIC ([3]; Isosensitest broth, inoculum about 10^4 cfu/ml, 18-24 h at 37° C.) of 0.05 µg/mL (≈ 0.0417 µM). The “activity against staphylococci (in words)” value [4] was “very active”, the MIC [5] was 0.025 µg/mL (≈ 0.0209 µM) and the MIC [6] was greater than 100 µg/mL. The MIC [7] was 0.05 µg/mL (≈ 0.0417 µM), the MIC [8] was 25 µg/mL (≈ 20.9 µM) and the MIC [9] was 50 µg/mL (≈ 41.7 µM). It also gave an MIC [10] of 0.05 µg/mL (≈ 0.0417 µM), an MIC [11] of 0.1 µg/mL (≈ 0.0834 µM) and an MIC [12] of 0.0125 µg/mL (≈ 0.0104 µM). The MIC [13] was 0.05 µg/mL (≈ 0.0417 µM), the MIC [14] was 0.05 µg/mL (≈ 0.0417 µM) and the MIC [15] was 0.1 µg/mL (≈ 0.0834 µM). It also gave an MIC [16] of 0.05 µg/mL (≈ 0.0417 µM), an MIC [17] of 0.2 µg/mL (≈ 0.167 µM) and an MIC [18] of 0.05 µg/mL (≈ 0.0417 µM). It also gave an MIC [19] of 0.05 µg/mL (≈ 0.0417 µM), an MIC [20] of 0.05 µg/mL (≈ 0.0417 µM) and an MIC [21] of 0.05 µg/mL (≈ 0.0417 µM). For the same compound, the “activity against methicillin-resistant staphylococci (in words)” value [22] was “very effective”.
Compound “deglucoteicoplanin benzyl ester, hydrochloride” has a pKa value [23] of 6.67.
